Bridge positions count the residues as written; N and C are the ends. Square brackets hold non-standard residues; d marks the D form. Peptide text beside a SMILES is read from it. * marks the point of attachment. DOTA = O=C(O)CN1CCN(CC(=O)O)CCN(CC(=O)*)CCN(CC(=O)O)CC1; Trp(1-CH2COOH) = N[C@@H](Cc1cn(CC(=O)O)c2ccccc12)C(=O)O; Hyp = O=C(O)[C@@H]1C[C@@H](O)CN1; NMeNle = CCCC[C@H](NC)C(=O)O; NMeA = CN[C@@H](C)C(=O)O
Experiments:
[1] = system: BFTC909 cells; assay: [^68Ga]Ga-DK223 uptake in BFTC909 cells with and without aPD-L1 mAbs; type: cell-based, human; details: 60 nM mAb
[2] = system: BFTC909 xenografts; assay: [^68Ga]Ga-DK223 PET-CT of BFTC909 xenografts after aPD-L1 treatment; type: in vivo, NSG mice; details: 24 h after 10 mg/kg mAb i.v.; PET 60 min after tracer
[3] = system: BFTC909 xenografts; type: in vivo, NSG mice; details: 10 mg/kg
[4] = cited from earlier work
[5] = system: SCaBER cells; assay: In vitro binding assay with [^68Ga]Ga-DK223; type: cell-based, human; details: 1×10^6 cells, ~1 μCi, 45 min at 4°C
[6] = system: SUM149 cells; assay: In vitro binding assay with [^68Ga]Ga-DK223; type: cell-based, human; details: 1×10^6 cells, ~1 μCi, 45 min at 4°C
[7] = Ex vivo biodistribution in BFTC909 xenografts; set-up: species or system NSG mice; details: NSG, mouse, tumor, iv, 50 uCi, total radioactivity
[8] = Ex vivo biodistribution in SCaBER xenografts; set-up: species or system NSG mice; details: NSG, mouse, tumor, iv, 50 uCi, total radioactivity
[9] = In vivo stability of [^68Ga]Ga-DK223; set-up: species or system mice; details: urine collected at 60 min after i.v. injection, radio-HPLC; n=3
[10] = system: MDAMB231 xenografts; details: NSG, mouse, in vivo, iv, 1 h
[11] = predicted residence time in human organ from mouse pharmacokinetic data
[12] = in vivo; details: NSG, mouse, iv, total radioactivity
[13] = system: MDAMB231 xenografts; assay: Ex vivo biodistribution in mice with MDAMB231 xenografts; details: NSG mice bearing MDAMB231 tumors, n=4-5
[14] = %ID/g [^68Ga]Ga-DK223, Adrenals
[15] = %ID/g [^68Ga]Ga-DK223, Pancreas

durvalumab
[^68Ga]Ga-DK223 uptake in BFTC909 cells in presence of mAb [1]: less than 1% | [^68Ga]Ga-DK223 uptake in tumors (PET) after mAb treatment [2]: significantly lower uptake | accessible PD-L1 levels ([3]; 120 h of treatment, tumor %ID/g as fraction of saline group): less than 10% | [^68Ga]Ga-DK223 tumor uptake versus saline controls ([3]; 120 h treatment): continued reduction in accessible target levels | half-life [4]: 18 days

CCCC[C@H]1C(=O)N(C)[C@@H](CCCC)C(=O)N[C@@H](CCCCNC(=O)CN2CCN(CC(=O)O)CCN(CC(=O)O)CCN(CC(=O)O)CC2)C(=O)N[C@H](C(=O)NCC(N)=O)CSCC(=O)N[C@@H](Cc2ccc(O)cc2)C(=O)N(C)[C@@H](C)C(=O)N[C@@H](CC(N)=O)C(=O)N2CCC[C@H]2C(=O)N[C@@H](Cc2c[nH]cn2)C(=O)N[C@@H](CCC(=O)O)C(=O)N2C[C@H](O)C[C@H]2C(=O)N[C@@H](Cc2c[nH]c3ccccc23)C(=O)N[C@@H](CO)C(=O)N[C@@H](Cc2cn(CC(=O)O)c3ccccc23)C(=O)N1C [[^68Ga]Ga-DK223, metal not drawn] ({CH2CO}-Y[NMeA]NPHE[Hyp]WS[Trp(1-CH2COOH)][NMeNle][NMeNle]K(DOTA)CG-NH2; thioether N-14)
in vitro uptake [5]: less than 2 %IA | in vitro uptake [6]: less than 2 %IA | tissue uptake at 1 h [7]: 21 ± 2.1 %ID/g | tissue uptake at 1 h [8]: < 3 %ID/g | in vivo stability, urine [9]: no metabolic cleavage | %ID/g [^68Ga]Ga-DK223, Adrenals [10]: 4.74 ± 3.64 %ID/g | %ID/g [^68Ga]Ga-DK223, Blood [10]: 3.05 ± 0.11 %ID/g | %ID/g [^68Ga]Ga-DK223, Femur [10]: 0.89 ± 0.06 %ID/g | %ID/g [^68Ga]Ga-DK223, Heart [10]: 0.95 ± 0.07 %ID/g | %ID/g [^68Ga]Ga-DK223, Lung [10]: 4.7 ± 0.42 %ID/g | %ID/g [^68Ga]Ga-DK223, Muscle [10]: 0.36 ± 0.04 %ID/g | %ID/g [^68Ga]Ga-DK223, Tumor [10]: 15.21 ± 1.43 %ID/g | %ID/g [^68Ga]Ga-DK223, Ovaries ([10]; female): 0.93 ± 0.08 %ID/g | Residence time, Adrenals [11]: 0.00014 h | Residence time, Bladder [11]: 0.00187 h | Residence time, Blood [11]: 0.1753 h | Residence time, Brain [11]: 0.00118 h | Residence time, Femur [11]: 0.03956 h | Residence time, Heart [11]: 0.0151 h | Residence time, Kidney [11]: 0.0337 h | Residence time, Large Intestine (with contents) [11]: 0.00099 h | Residence time, Liver [11]: 0.01633 h | Residence time, Lung [11]: 0.03245 h | Residence time, Muscle [11]: 0.06168 h | Residence time, Ovaries [11]: 0.00011 h | Residence time, Pancreas [11]: 0.00052 h | Residence time, Small Intestine (with contents) [11]: 0.00453 h | Residence time, Spleen [11]: 0.00129 h | Residence time, Stomach (with contents) [11]: 0.00072 h | Residence time, Thymus [11]: 0.00047 h | Residence time, Uterus [11]: 0.00114 h | tissue uptake at 0.5 h [12, 14]: 2.22 ± 0.19 %ID/g | tissue uptake at 1.5 h [12, 14]: 0.18 ± 0.03 %ID/g | tissue uptake at 3 h [12, 14]: 0.16 ± 0.11 %ID/g | tissue uptake at 0.5 h ([12]; %ID/g [^68Ga]Ga-DK223, Bladder): 4.09 ± 0.49 %ID/g | tissue uptake at 1 h ([12]; %ID/g [^68Ga]Ga-DK223, Bladder): 1.42 ± 0.12 %ID/g | tissue uptake at 1.5 h ([12]; %ID/g [^68Ga]Ga-DK223, Bladder): 0.78 ± 0.07 %ID/g | tissue uptake at 3 h ([12]; %ID/g [^68Ga]Ga-DK223, Bladder): 1.28 ± 0.32 %ID/g | tissue uptake at 0.5 h ([12]; %ID/g [^68Ga]Ga-DK223, Blood): 7.63 ± 0.87 %ID/g | tissue uptake at 1.5 h ([12]; %ID/g [^68Ga]Ga-DK223, Blood): 2.14 ± 0.08 %ID/g | tissue uptake at 3 h ([12]; %ID/g [^68Ga]Ga-DK223, Blood): 1.72 ± 0.04 %ID/g | tissue uptake at 0.5 h ([12]; %ID/g [^68Ga]Ga-DK223, Brain): 0.22 ± 0.05 %ID/g | tissue uptake at 1.5 h ([12]; %ID/g [^68Ga]Ga-DK223, Brain): 0.05 ± 0.01 %ID/g | tissue uptake at 3 h ([12]; %ID/g [^68Ga]Ga-DK223, Brain): 0.04 ± 0.01 %ID/g | tissue uptake at 0.5 h ([12]; %ID/g [^68Ga]Ga-DK223, Femur): 1.74 ± 0.14 %ID/g | tissue uptake at 1.5 h ([12]; %ID/g [^68Ga]Ga-DK223, Femur): 0.59 ± 0.04 %ID/g | tissue uptake at 3 h ([12]; %ID/g [^68Ga]Ga-DK223, Femur): 0.64 ± 0.07 %ID/g | tissue uptake at 0.5 h ([12]; %ID/g [^68Ga]Ga-DK223, Heart): 2.49 ± 0.3 %ID/g | tissue uptake at 1.5 h ([12]; %ID/g [^68Ga]Ga-DK223, Heart): 0.73 ± 0.03 %ID/g | tissue uptake at 3 h ([12]; %ID/g [^68Ga]Ga-DK223, Heart): 0.46 ± 0.03 %ID/g | tissue uptake at 0.5 h ([12]; %ID/g [^68Ga]Ga-DK223, Liver): 2.85 ± 0.41 %ID/g | tissue uptake at 1 h ([12]; %ID/g [^68Ga]Ga-DK223, Liver): 1.31 ± 0.08 %ID/g | tissue uptake at 1.5 h ([12]; %ID/g [^68Ga]Ga-DK223, Liver): 0.91 ± 0.11 %ID/g | tissue uptake at 3 h ([12]; %ID/g [^68Ga]Ga-DK223, Liver): 0.82 ± 0.09 %ID/g | tissue uptake at 0.5 h ([12]; %ID/g [^68Ga]Ga-DK223, Lung): 11 ± 2.29 %ID/g | tissue uptake at 1.5 h ([12]; %ID/g [^68Ga]Ga-DK223, Lung): 5.3 ± 1.68 %ID/g | tissue uptake at 3 h ([12]; %ID/g [^68Ga]Ga-DK223, Lung): 2.98 ± 0.71 %ID/g | tissue uptake at 0.5 h ([12]; %ID/g [^68Ga]Ga-DK223, Muscle): 0.85 ± 0.09 %ID/g | tissue uptake at 1.5 h ([12]; %ID/g [^68Ga]Ga-DK223, Muscle): 0.17 ± 0.01 %ID/g | tissue uptake at 3 h ([12]; %ID/g [^68Ga]Ga-DK223, Muscle): 0.08 ± 0.02 %ID/g | tissue uptake at 0.5 h [12, 15]: 2.01 ± 0.54 %ID/g | tissue uptake at 1 h [12, 15]: 0.45 ± 0.05 %ID/g | tissue uptake at 1.5 h [12, 15]: 0.39 ± 0.01 %ID/g | tissue uptake at 3 h [12, 15]: 0.24 ± 0.03 %ID/g | tissue uptake at 0.5 h ([12]; %ID/g [^68Ga]Ga-DK223, Spleen): 2.45 ± 0.51 %ID/g | tissue uptake at 1 h ([12]; %ID/g [^68Ga]Ga-DK223, Spleen): 1.05 ± 0.07 %ID/g | tissue uptake at 1.5 h ([12]; %ID/g [^68Ga]Ga-DK223, Spleen): 0.71 ± 0.06 %ID/g | tissue uptake at 3 h ([12]; %ID/g [^68Ga]Ga-DK223, Spleen): 0.58 ± 0.03 %ID/g | tissue uptake at 0.5 h ([12]; %ID/g [^68Ga]Ga-DK223, Thymus): 7.02 ± 1.06 %ID/g | tissue uptake at 1 h ([12]; %ID/g [^68Ga]Ga-DK223, Thymus): 3.53 ± 0.27 %ID/g | tissue uptake at 1.5 h ([12]; %ID/g [^68Ga]Ga-DK223, Thymus): 1.26 ± 0.47 %ID/g | tissue uptake at 3 h ([12]; %ID/g [^68Ga]Ga-DK223, Thymus): 1.52 ± 0.75 %ID/g | tissue uptake at 0.5 h ([12]; %ID/g [^68Ga]Ga-DK223, Tumor): 14.3 ± 1.54 %ID/g | tissue uptake at 1.5 h ([12]; %ID/g [^68Ga]Ga-DK223, Tumor): 12.2 ± 0.32 %ID/g | tissue uptake at 3 h ([12]; %ID/g [^68Ga]Ga-DK223, Tumor): 11.6 ± 0.79 %ID/g | %ID/g [^68Ga]Ga-DK223, Kidney ([13]; 5 min after injection): 28.59 ± 2.4 %ID/g | %ID/g [^68Ga]Ga-DK223, Kidney ([13]; 30 min after injection): 24.4 ± 1.5 %ID/g | %ID/g [^68Ga]Ga-DK223, Kidney ([13]; 60 min after injection): 22.99 ± 2.01 %ID/g | %ID/g [^68Ga]Ga-DK223, Kidney ([13]; 90 min after injection): 16.23 ± 0.8 %ID/g | %ID/g [^68Ga]Ga-DK223, Kidney ([13]; 180 min after injection): 19.14 ± 1.32 %ID/g

From article PMC9890130 (Clinical cancer research : an official journal of the …, 2023)
